This passage reports T/C results from PubChem BioAssay AID330 (DTP/NCI, 2004).

Values joined by “and” are separate entries in the source; they are usually repeats but may differ in a detail not shown here. Equal entries are not always repeated. Toxic doses and inconclusive results are not listed.

The subject of this assay is P388 leukemia ip, CD2F1 mice, survival T/C. The assay is described as follows: NCI In Vivo Anticancer Drug Screen. Data for tumor model P388 Leukemia (intraperitoneal) in CD2F1 (CDF1) mice. The settings on record: endpoint: median survival time, higher = longer survival. In short, it runs like this: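 Mice carrying the transplanted tumor received test compound or vehicle. Survival was recorded in each group, and the value is the treated-group measurement divided by that of the vehicle-treated control group.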

The mark [1] stands for this setting: dose: 50.0 mg/kg/injection, schedule: Q01DX005 (ip), vehicle: saline with Tween-80.
Where [2] appears, read: dose: 100.0 mg/kg/injection, schedule: Q01DX005 (ip), vehicle: saline with Tween-80.
[3] abbreviates: dose: 200.0 mg/kg/injection, schedule: Q01DX005 (ip), vehicle: saline with Tween-80.
The mark [4] stands for this setting: dose: 100.0 mg/kg/injection, schedule: Q04DX002 (ip), vehicle: saline with Tween-80.
The mark [5] stands for this setting: dose: 200.0 mg/kg/injection, schedule: Q04DX002 (ip), vehicle: saline with Tween-80.
The mark [6] stands for this setting: dose: 400.0 mg/kg/injection, schedule: Q04DX002 (ip), vehicle: saline with Tween-80.
[7] abbreviates: dose: 12.5 mg/kg/injection, schedule: Q01DX009 (ip), vehicle: saline with Tween-80.
The mark [8] stands for this setting: dose: 25.0 mg/kg/injection, schedule: Q01DX009 (ip), vehicle: saline with Tween-80.
[9] abbreviates: dose: 50.0 mg/kg/injection, schedule: Q01DX009 (ip), vehicle: saline with Tween-80.
Where [10] appears, read: dose: 100.0 mg/kg/injection, schedule: Q01DX009 (ip), vehicle: saline with Tween-80.
Where [11] appears, read: dose: 200.0 mg/kg/injection, schedule: Q01DX009 (ip), vehicle: saline with Tween-80.
[12] abbreviates: dose: 60.0 mg/kg/injection, schedule: Q01DX005 (ip), vehicle: saline with Tween-80.
Setting [13] is: dose: 120.0 mg/kg/injection, schedule: Q01DX005 (ip), vehicle: saline with Tween-80.
The mark [14] stands for this setting: dose: 50.0 mg/kg/injection, schedule: Q01DX001 (ip), vehicle: Klucel (hydroxypropylcellulose) (HPC).
The mark [15] stands for this setting: dose: 100.0 mg/kg/injection, schedule: Q01DX001 (ip), vehicle: Klucel (hydroxypropylcellulose) (HPC).
[16] abbreviates: dose: 50.0 mg/kg/injection, schedule: Q01DX005 (ip), vehicle: Klucel (hydroxypropylcellulose) (HPC).
The mark [17] stands for this setting: dose: 100.0 mg/kg/injection, schedule: Q01DX005 (ip), vehicle: Klucel (hydroxypropylcellulose) (HPC).

In the case of `CNC1C(OC2C(OC3C(O)C(O)C(N=C(N)N)C(O)C3N=C(N)N)OC(C)C2(O)/C=N/NC(N)=S)OC(CO)C(O)C1O` (stereo not drawn), the T/C was 101 % of control under setting [1], 100 % of control under setting [2] and 103 % of control under setting [3].
With `COC(=O)c1csc(-c2csc(CCNC(=O)c3ccccc3)n2)n1`, the T/C is, setting by setting: under setting [4], 93 % of control; under setting [5], 95 % of control; under setting [6], 96 % of control.
Turning to `c1ccc2c(-c3nc4ccccc4c4ccccc34)nccc2c1`, the T/C was 92 % of control (dose: 100.0 mg/kg/injection, schedule: Q01DX001 (ip), vehicle: saline with Tween-80); 92 % of control (dose: 200.0 mg/kg/injection, schedule: Q01DX001 (ip), vehicle: saline with Tween-80); 99 % of control (dose: 400.0 mg/kg/injection, schedule: Q01DX001 (ip), vehicle: saline with Tween-80).
On to `CCOC(=O)C(Cc1c[nH]c2ccccc12)NCCN` (stereo not drawn), for which the T/C is, setting by setting: (dose: 50.0 mg/kg/injection, schedule: Q01DX009 (ip), vehicle: saline) 99 % of control; (dose: 100.0 mg/kg/injection, schedule: Q01DX009 (ip), vehicle: saline) 108 % of control; (dose: 200.0 mg/kg/injection, schedule: Q01DX009 (ip), vehicle: saline) 86 % of control.
On to `O=[N+]([O-])C1CCC(O)C([N+](=O)[O-])C1` (stereo not drawn) (tested in a mixture with another compound), for which the T/C is 100 % of control (dose: 6.25 mg/kg/injection, schedule: Q01DX009 (ip), vehicle: saline with Tween-80); 96 % of control under setting [7]; 99 % of control under setting [8].
On to `CN(/N=C/c1ccc2c(c1)OCO2)C(=O)c1ccccc1N`, for which the T/C was 108 % of control under setting [9], 114 % of control under setting [10] and 116 % of control under setting [11].
With `Cc1cccc(C)c1NC(=S)NC(=O)c1ccccc1`, the T/C is 100 % of control under setting [9], 98 % of control under setting [10] and 100 % of control under setting [11].
Turning to `CN(C)C(=O)C1SCCCS1`, the T/C is, setting by setting: under setting [4], 107 % of control; under setting [5], 108 % of control; under setting [6], 108 % of control.
`CC(C)(C)n1nc(C2CC2)c(Br)c1NC(=O)c1ccccc1Cl`: the T/C is 106 % of control (dose: 30.0 mg/kg/injection, schedule: Q01DX005 (ip), vehicle: Klucel (hydroxypropylcellulose) (HPC)); 109 % of control (dose: 60.0 mg/kg/injection, schedule: Q01DX005 (ip), vehicle: Klucel (hydroxypropylcellulose) (HPC)); 105 % of control (dose: 120.0 mg/kg/injection, schedule: Q01DX005 (ip), vehicle: Klucel (hydroxypropylcellulose) (HPC)); 100 % of control (dose: 240.0 mg/kg/injection, schedule: Q01DX005 (ip), vehicle: Klucel (hydroxypropylcellulose) (HPC)).
For `N#C/C(=C1C=C/C(=N/O)C=C/1Cl)c1ccccc1`, the T/C under setting [9] was 95 % of control; the T/C under setting [10] was 93 % of control; the T/C under setting [11] was 94 % of control; the T/C (dose: 400.0 mg/kg/injection, schedule: Q01DX009 (ip), vehicle: saline with Tween-80) is 94 % of control.
Regarding `COc1cc(C(=O)CC(=O)CCC(=O)Nc2ccc(C)c(C)c2)ccc1O`, the T/C under setting [12] was 102 % of control; the T/C under setting [13] is 104 % of control; the T/C (dose: 240.0 mg/kg/injection, schedule: Q01DX005 (ip), vehicle: saline with Tween-80) is 102 % of control.
As to `Cc1c2oc(=O)cc(-c3ccccc3)c2cc2c(=O)ccoc12`, the T/C runs as follows: (dose: 12.5 mg/kg/injection, schedule: Q01DX005 (ip), vehicle: saline with Tween-80) 97 % of control; (dose: 25.0 mg/kg/injection, schedule: Q01DX005 (ip), vehicle: saline with Tween-80) 92 % of control; under setting [1], 97 % of control; under setting [2], 86 % of control; under setting [3], 86 % of control.
In the case of `CCOC(=O)c1ccc(NC(=O)c2ccccc2)cc1`, the T/C was 96 % of control under setting [14]; 90 % of control under setting [15]; 92 % of control (dose: 200.0 mg/kg/injection, schedule: Q01DX001 (ip), vehicle: Klucel (hydroxypropylcellulose) (HPC)); 95 % of control (dose: 400.0 mg/kg/injection, schedule: Q01DX001 (ip), vehicle: Klucel (hydroxypropylcellulose) (HPC)).
As for `COC(=O)c1nc(N)nc(C(=O)OC)c1C(=O)C(C)(C)C`, the T/C by setting is: under setting [12], 96 % of control; under setting [13], 96 % of control.
For `C=CCN1CSC(=S)N(CC=C)C1`, the T/C is 98 % of control under setting [8]; 119 % of control and 94 % of control under setting [9].
Regarding `CNc1ccc(/C=C/c2ccnc3ccccc23)cc1`, the T/C is, setting by setting: (dose: 3.12 mg/kg/injection, schedule: Q01DX009 (ip), vehicle: Klucel (hydroxypropylcellulose) (HPC)) 95 % of control and 98 % of control; (dose: 6.25 mg/kg/injection, schedule: Q01DX009 (ip), vehicle: Klucel (hydroxypropylcellulose) (HPC)) 108 % of control and 111 % of control and 112 % of control; (dose: 12.5 mg/kg/injection, schedule: Q01DX009 (ip), vehicle: Klucel (hydroxypropylcellulose) (HPC)) 113 % of control and 97 % of control; (dose: 25.0 mg/kg/injection, schedule: Q01DX009 (ip), vehicle: Klucel (hydroxypropylcellulose) (HPC)) 109 % of control and 87 % of control.
Turning to `Cc1cc(=O)n2c3c(c4c(cc13)c(CBr)cc(=O)n4C)OC2`, the T/C reads like this: (dose: 12.5 mg/kg/injection, schedule: Q01DX001 (ip), vehicle: Klucel (hydroxypropylcellulose) (HPC)) 96 % of control; (dose: 25.0 mg/kg/injection, schedule: Q01DX001 (ip), vehicle: Klucel (hydroxypropylcellulose) (HPC)) 96 % of control; under setting [14], 112 % of control; under setting [15], 101 % of control.
For the molecule `COc1ccc(CN2CCCN(/N=C/c3c4c(O)c5c(O)c(C)c6c(c5c3O)C(=O)C(C)(O/C=C/C(OC)C(C)C(OC(C)=O)C(C)C(O)C(C)C(O)C(C)/C=C/C=C(C)C(=O)N4)O6)CC2)cc1` (stereo not drawn), the T/C reads like this: under setting [7], 109 % of control; under setting [8], 117 % of control; under setting [9], 103 % of control and 97 % of control; under setting [10], 100 % of control; under setting [11], 97 % of control.
Regarding `C[n+]1c(-c2cccc(OCCOCCOc3cccc(-c4c5cc(N)ccc5c5ccc(N)cc5[n+]4C)c3)c2)c2cc(N)ccc2c2ccc(N)cc21`, the T/C is, setting by setting: (dose: 0.19 mg/kg/injection, schedule: Q01DX009 (ip), vehicle: water) 114 % of control; (dose: 0.39 mg/kg/injection, schedule: Q01DX009 (ip), vehicle: water) 114 % of control; (dose: 1.56 mg/kg/injection, schedule: Q01DX009 (ip), vehicle: water) 170 % of control; (dose: 3.13 mg/kg/injection, schedule: Q01DX009 (ip), vehicle: water) 172 % of control; (dose: 6.25 mg/kg/injection, schedule: Q01DX009 (ip), vehicle: water) 102 % of control.
On to `CCOC(=O)/C=C/C(=O)N1CCN(C(=O)/C=C/C(=O)OCC)C(C)C1` (stereo not drawn), for which the T/C by setting is: under setting [16], 113 % of control; (dose: 90.0 mg/kg/injection, schedule: Q01DX005 (ip), vehicle: Klucel (hydroxypropylcellulose) (HPC)) 108 % of control; under setting [17], 116 % of control; (dose: 133.0 mg/kg/injection, schedule: Q01DX005 (ip), vehicle: Klucel (hydroxypropylcellulose) (HPC)) 112 % of control.
Regarding `Cc1cccc(C(=O)OCCBr)c1`, the T/C was 104 % of control (dose: 18.75 mg/kg/injection, schedule: Q01DX009 (ip), vehicle: saline sonified); 109 % of control (dose: 37.5 mg/kg/injection, schedule: Q01DX009 (ip), vehicle: saline sonified); 109 % of control (dose: 49.5 mg/kg/injection, schedule: Q01DX009 (ip), vehicle: saline sonified); 104 % of control (dose: 75.0 mg/kg/injection, schedule: Q01DX009 (ip), vehicle: saline sonified); 104 % of control (dose: 112.5 mg/kg/injection, schedule: Q01DX009 (ip), vehicle: saline sonified).
As to `O=C(NC(Cc1ccc(Cl)cc1)C(=O)O)c1ccc(I)cc1` (stereo not drawn), the T/C under setting [16] was 101 % of control; the T/C under setting [17] was 101 % of control; the T/C (dose: 200.0 mg/kg/injection, schedule: Q01DX005 (ip), vehicle: Klucel (hydroxypropylcellulose) (HPC)) was 94 % of control.
